According to patent US20230416261A1, “ETHANEDIAMINE-HETEROCYCLE DERIVATIVES AS INHIBITORS OF PROTEIN ARGININE METHYLTRANSFERASES” (Board of Regents, The University of Texas System, priority 2021, published 2023):

Legend:
DOHH2 cells = assay: DOHH2 Long Term Phenotypic Assay (7 days, Cell Titer-Glo viability); assay type: cell-based; details: Homo sapiens, DOHH-2, 168 h, Cell Titer-Glo 2.0
Method: DOHH2 cells were kindly provided by Michael Green (MDACC). The cells were routinely maintained in RPMI-1640 Medium (ATCC, Catalog #30-2001) supplemented with 10% fetal bovine serum (Sigma, Catalog #F2442), 100 units/mL penicillin and 100 μg/mL streptomycin (Gibco, Catalog #15140-122) in a humidified incubator (37° C., 5% CO2). Cells were seeded onto a white, CulturPlate-384 (Perkin Elmer, catalog #6007680) at a density of 250 cells per well in a volume of 50 μL. Stock solutions of the test compounds were prepared in 100% DMSO (Sigma, Catalog #D2650) and serially diluted 1:3 using 100% DMSO. Compounds were additionally diluted 1:33 in culture medium, and 10 μL/well was transferred to the tissue culture plate. Following the compound addition, the plate was incubated at 37° C. and 5% CO2 for 7 days. Cells were then mixed and a 30 μL volume was removed. Viability was assessed by a 30 μL addition of Cell Titer-Glo 2.0 (Promega, catalog #G9243). The plate was then shaken on an orbital shaker at 300 RPM for 10 minutes at room temperature, in the dark. Luminescence was measured using a PerkinElmer Envision™ plate reader. IC50 values were calculated using a four-parameter logistic curve fit using Genedata Screener software.

PATC53 cells = assay: PATC53 Long Term Phenotypic Assay (14 days, crystal violet viability); assay type: cell-based; details: 336 h
Method: PATC53 cells were derived from the PATC53 PDX model and kindly provided by Jason Fleming (MDACC). The cells were routinely maintained in DMEM/F12 Medium (Corning, Catalog #10-090-CV) supplemented with 10% fetal bovine serum (Sigma, Catalog #F2442), 100 units/mL penicillin and 100 μg/mL streptomycin (Gibco, Catalog #15140-122) in a humidified incubator (37° C., 5% CO2). Prior to the assay, cells were seeded onto a 12-well, TC treated plate (Corning, catalog #353043) at a density of 250 cells per well in a volume of 1 mL. The plate was incubated for 24 hours at 37° C. and 5% CO2. Stock solutions of the test compounds were prepared in 100% DMSO (Sigma, Catalog #D2650) and serially diluted 1:3 using 100% DMSO. Compounds were additionally diluted 1:100 in culture medium, and 110 μL/well was transferred to the tissue culture plate. Following the compound addition, the plate was incubated at 37° C. and 5% CO2 for 14 days. Viability was then assessed by crystal violet staining (Fisher Scientific, Catalog #C58125) as follows: 450 μL of crystal violet (1 mg/mL) was added to the plate for a 10 minute incubation at room temperature. After incubation, the plate was washed 3× with distilled water to remove excess dye and allowed to dry overnight. The crystal violet was solubilized using 10% HOAc (500 μL) for 10 minutes at room temperature, while shaking. A volume of 100 μL was then transferred to a 96-well SpectraPlate (Perkin Elmer, Catalog #6005649). Absorbance at 590 nm was measured with a BioTek Synergy Neo. IC50 values were calculated using a four-parameter logistic curve fit using Genedata Screener software.

PRMT1 [1] = target: T1, PRMT1 (Homo sapiens, UniProt Q99873); assay: PRMT1 Enzymatic Assay (LANCE TR-FRET, methylation of histone H4 at Arg3); assay type: biochemical; set-up: purchased SignalChem P365-380G; details: PRMT1 1.5 nM, SAM 1 μM, biotinylated histone H4 (1-21) 25 nM; read-out: PRMT-1 IC50
T1 sequence (Q99873 whole entry): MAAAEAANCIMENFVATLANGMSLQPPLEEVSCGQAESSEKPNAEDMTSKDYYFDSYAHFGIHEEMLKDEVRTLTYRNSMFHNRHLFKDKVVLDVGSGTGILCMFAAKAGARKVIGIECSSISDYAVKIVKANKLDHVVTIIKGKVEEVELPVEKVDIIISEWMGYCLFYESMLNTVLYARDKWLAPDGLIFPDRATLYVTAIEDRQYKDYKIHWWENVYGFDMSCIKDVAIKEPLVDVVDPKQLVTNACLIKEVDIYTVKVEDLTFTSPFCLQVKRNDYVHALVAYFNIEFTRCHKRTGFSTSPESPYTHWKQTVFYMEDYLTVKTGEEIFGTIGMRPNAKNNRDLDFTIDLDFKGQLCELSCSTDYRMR
Method: In order to measure PRMT1 enzymatic activity the LANCE TR-FRET assay from PerkinElmer was used to follow the methylation of histone H4 at Arg3 using S-adenosyl-L-methionine (SAM) as the methyl group donor.
This enzymatic assay was performed in a 384 well, white, low volume plate (PerkinElmer, Catalog 6008289) with assay buffer consisting of 50 mM Hepes (pH 8) (Teknova, Catalog #H1090), 1 mM TCEP (Sigma, Catalog #C4706), and 0.003% Tween-20 (Thermo, Catalog #85114). Stock solutions of the test compounds were prepared in 100% DMSO (Sigma, Catalog #D2650) and serially diluted 1:3 using 100% DMSO. Compounds were additionally diluted 1:40 in assay buffer, and 2 uL/well were transferred to the assay plate. 4 uL/well (final concentration 1.5 nM) of PRMT1 protein (SignalChem, Catalog #P365-380G) diluted in assay buffer was added to the assay plate followed by a 15 min preincubation at room temperature. 4 uL/well of SAM (Sigma, Catalog #A7007) and biotinylated histone H4 (1-21) (AnaSpec, Catalog #62555) (final concentrations 1 μM and 25 nM, respectively) diluted in assay buffer were then added to the assay plate followed by a 1 hour reaction time. Final concentrations of PRMT1, SAM, and histone H4 (1-21) refer to a […].
Detection of methylated histone H4 (H4R^3me) was achieved by combining LANCE Ultra Europium-anti-H4R^3me antibody (PerkinElmer, Catalog #TRF04-14), LANCE Ultra ULight-anti-streptavidin antibody (PerkinElmer, Catalog #TRF0102), and sinefungin (Sigma, Catalog #S8559) (final concentrations 2 nM, 50 nM, and 100 μM respectively) in 1× LANCE detection buffer (PerkinElmer, Catalog #CR97-100) and adding L/well of the detection solution to the assay plate. Detection reagents were allowed to react for 1 hour at room temperature. Final concentrations in the detection solution refer to a L volume. The europium fluorescence signal and the ULight TR-FRET signal were measured using a BioTek Synergy Neo plate reader: excitation at 330 nm, emission at 620 nm and 665 nm respectively, and the ratio of the two signals (665 nm/620 nm) was used for curve fitting. IC50 values were calculated using a four-parameter logistic curve fit using Genedata Screener software.

PRMT1 [2] = target: T1, PRMT1; assay: PRMT1 RKO Cellular Target Engagement Assay (In-Cell Western, asymmetric di-methyl arginine); assay type: cell-based; details: RKO cells, 48 hr compound incubation; read-out: RKO IC50 (PRMT-1 Target Engagement)
Method: RKO cells were routinely maintained in EMEM media (ATCC, Catalog #30-2003) supplemented with 10% fetal bovine serum (Sigma, Catalog #F2442) using a humidified incubator (37° C., 5% CO2, and ambient O2).
In preparation for the In-Cell Western assay, cells were harvested and resuspended in EMEM media supplemented with 10% fetal bovine serum. Cells were seeded onto a 384 well, black, clear bottom, Poly-D-Lysine coated tissue culture plate (Greiner, Catalog #781946) at a density of 1,000 cells/well in a volume of 40 μL. The culture plate was incubated for 24 hr at 37° C. with 5% CO2 and ambient O2. Stock solutions of the test compounds were prepared in 100% DMSO (Sigma, Catalog #D2650) and serially diluted 1:3 using 100% DMSO. Compounds were additionally diluted 1:40 in culture medium, and 10 μL/well was transferred to the tissue culture plate. Following the compound addition the microplate was incubated at 37° C. for 48 hr.
The media was removed, the plate was washed with 1× PBS (Fisher Bioreagents, Catalog #BP399-20), and cells were fixed for 10 min using 30 μL/well of 4% paraformaldehyde (Electron Microscopy Sciences, Catalog #15710). The paraformaldehyde was removed, the plate was again washed with 1× PBS, and cells were permeabilized for 15 min using 30 μL/well of 1× PBS containing 0.5% Triton-X 100 (Sigma, Catalog #1001748095). The permeabilization buffer was removed, the plate was washed with 1× PBST (Boston BioProducts, Catalog #IBB-171X), and 50 μL/well of blocking buffer (LI-COR, Catalog #927-40000) was added followed by a 1 hour incubation at room temperature. The blocking buffer was removed, and 20 μL/well of anti-asymmetric di-methyl arginine antibody (Cell Signaling, Catalog #13522S) diluted 1:1000 in LI-COR blocking buffer was added to the plate and incubated overnight, in the dark at 4° C.
The primary antibody was then removed, and the plate was washed three times with 1× PBST. 20 μL/well of CellTag (LI-COR, Catalog #926-41090) and IRDye 800CW goat anti-rabbit IgG antibody (LI-COR, Catalog #926-32211), each diluted 1:500 in LI-COR blocking buffer supplemented with 0.1% Tween-20 (Thermo Scientific, Catalog #85114), were added to the plate. The plate was then incubated in the dark, at room temperature for 1 hour followed by three washes with 1× PBST and one wash with H2O. The IRDye secondary antibody signal (800 channel) and the CellTag signal (700 channel) were measured using a Licor Odyssey Imager, and the 800 channel signal was then normalized to the 700 channel signal. IC50 values were calculated using a four-parameter logistic curve fit using Genedata Screener software.

Row | SMILES | IC50 (DOHH2 cells) | IC50 (PATC53 cells) | IC50 (PRMT1 [1]) | IC50 (PRMT1 [2])
1 | COCC1(COC)CCC(c2c(CN(C)CCN)nn3c2CN(C(=O)C2CCC2)CC3)CC1 [Example 11, (2-(((2-aminoethyl)(methyl)-amino)methyl)-3-(4,4-bis-(methoxymethyl)cyclohexyl)-6,7-dihydropyrazolo[1,5-a]-pyrazin-5(4H)-yl)-(cyclobutyl)methanone] | 111 nM | 70 nM | 16 nM | 1210 nM
2 | CCOCC1(COCC)CCC(c2c(CN(C)CCNC)nn3c2CN(C(=O)CC(F)(F)F)CC3)CC1 [Example 3, 1-(3-(4,4-bis(ethoxymethyl)-cyclohexyl)-2-((methyl(2-(methylamino)ethyl)amino)-methyl)-6,7-dihydropyrazolo-[1,5-a]pyrazin-5(4H)-yl)-3,3,3-trifluoropropan-1-one] | – | 428 nM | 57 nM | 153 nM
3 | COCC1(COC)CCC(c2c(CN(C)CCN)nn3c2CN(C(=O)CC(F)(F)F)CC3)CC1 [Example 10, 1-(2-(((2-aminoethyl)-(methyl)amino)methyl)-3-(4,4-bis(methoxymethyl)-cyclohexyl)-6,7-dihydro-pyrazolo[1,5-a]pyrazin-5(4H)-yl)-3,3,3-trifluoropropan-1-one] | – | 649 nM | 20 nM | 695 nM
4 | CNCCN(C)Cc1nn2c(c1C1CCC(COC)(COC)CC1)CN(C(=O)C1COC1)CC2 [Example 9, (3-(4,4-bis(methoxymethyl)-cyclohexyl)-2-((methyl(2-(methylamino)ethyl)amino)-methyl)-6,7-dihydropyrazolo-[1,5-a]pyrazin-5(4H)-yl)-(oxetan-3-yl)methanone] | – | 1300 nM | 65 nM | 1110 nM
5 | COCC1(COC)CCC(c2c(CN(C)CCN)nn3c2CN(C(=O)C2COC2)CC3)CC1 [Example 12, (2-(((2-aminoethyl)(methyl)-amino)methyl)-3-(4,4-bis-(methoxymethyl)cyclohexyl)-6,7-dihydropyrazolo[1,5-a]-pyrazin-5(4H)-yl)(oxetan-3-yl)methanone] | – | 3860 nM | 23 nM | –
6 | CNCCN(C)Cc1nn2c(c1C1CCC(COC)(COC)CC1)CN(C(=O)C1CCOCC1)CC2 [Example 31, (3-(4,4-bis(methoxymethyl)-cyclohexyl)-2-((methyl(2-(methylamino)ethyl)amino)-methyl)-6,7-dihydropyrazolo-[1,5-a]pyrazin-5(4H)-yl)-(tetrahydro-2H-pyran-4-yl)-methanone] | 206 nM | 595 nM | 108 nM | –
7 | CNCCN(C)Cc1nn2c(c1C1CCC(COC)(COC)CC1)CN(C(=O)CC1CCOCC1)CC2 [Example 34, 1-(3-(4,4-bis(methoxy-methyl)cyclohexyl)-2-((methyl(2-(methylamino)-ethyl)amino)methyl)-6,7-dihydropyrazolo[1,5-a]-pyrazin-5(4H)-yl)-2-(tetrahydro-2H-pyran-4-yl)ethan-1-one] | 198 nM | 642 nM | 124 nM | –
8 | CNCCN(C)Cc1nn2c(c1C1CCC(COC)(COC)CC1)CN(C(=O)CC(F)(F)F)CC2 [Example 7, 1-(3-(4,4-bis(methoxy-methyl)cyclohexyl)-2-((methyl(2-(methylamino)-ethyl)amino)methyl)-6,7-dihydropyrazolo[1,5-a]-pyrazin-5(4H)-yl)-3,3,3-trifluoropropan-1-one] | – | 210 nM | 32 nM | 1620 nM
9 | CNCCN(C)Cc1nn2c(c1C1CCC(COC)(COC)CC1)CN(C(=O)C13CC(C#N)(C1)C3)CC2 [Example 22, 3-(3-(4,4-bis(methoxy-methyl)cyclohexyl)-2-((methyl(2-(methylamino)-ethyl)amino)methyl)-4,5,6,7-tetrahydropyrazolo[1,5-a]-pyrazine-5-carbonyl)bicyclo[1.1.1] pentane-1-carbonitrile] | – | 447 nM | 72 nM | 1400 nM
10 | CNCCN(C)Cc1nn2c(c1C1CCC(COC)(COC)CC1)CN(C(=O)C1(C)CC1)CC2 [Example 17, (3-(4,4-bis(methoxymethyl)-cyclohexyl)-2-((methyl(2-(methylamino)ethyl)amino)-methyl)-6,7-dihydropyrazolo-[1,5-a]pyrazin-5(4H)-yl)(1-methylcyclopropyl)-methanone] | – | 133 nM | 56 nM | 370 nM
